Test results from patent US20050228016A1, “TETRAHYDROQUINOLINES FOR MODULATING THE EXPRESSION OF EXOGENOUS GENES VIA AN ECDYSONE RECEPTOR COMPLEX” (priority 2002, published 2005).

Key:
[1] = target: T1, Gal4DBD/AaEcR (DEF) (Aedes aegypti, UniProt P49880); experiment: cell-based; assay type: cell-based; details: 33 μM; 3T3 cells; 48 h; average of two wells
T1 construct: The wildtype D, E, and F domains from mosquito Aedes aegypti EcR; expressed in transfected cells; host or cells: 3T3 cells
How it was run: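 Single-dose ligand testing at 33 μM, applied in serum medium after 4 h transfection. Host was 3T3 cells carrying Gal4DBD/AaEcR (DEF) plus a 5× GAL4 RE-driven firefly luciferase reporter (pFRLuc).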

[2] = target: T2, DmEcR + LmUSP (Drosophila melanogaster, UniProt P34021); details: DmEcR + LmUSP in 3T3 cells, reporter assayed 48 h after ligand
T2 sequence (P34021 342-878): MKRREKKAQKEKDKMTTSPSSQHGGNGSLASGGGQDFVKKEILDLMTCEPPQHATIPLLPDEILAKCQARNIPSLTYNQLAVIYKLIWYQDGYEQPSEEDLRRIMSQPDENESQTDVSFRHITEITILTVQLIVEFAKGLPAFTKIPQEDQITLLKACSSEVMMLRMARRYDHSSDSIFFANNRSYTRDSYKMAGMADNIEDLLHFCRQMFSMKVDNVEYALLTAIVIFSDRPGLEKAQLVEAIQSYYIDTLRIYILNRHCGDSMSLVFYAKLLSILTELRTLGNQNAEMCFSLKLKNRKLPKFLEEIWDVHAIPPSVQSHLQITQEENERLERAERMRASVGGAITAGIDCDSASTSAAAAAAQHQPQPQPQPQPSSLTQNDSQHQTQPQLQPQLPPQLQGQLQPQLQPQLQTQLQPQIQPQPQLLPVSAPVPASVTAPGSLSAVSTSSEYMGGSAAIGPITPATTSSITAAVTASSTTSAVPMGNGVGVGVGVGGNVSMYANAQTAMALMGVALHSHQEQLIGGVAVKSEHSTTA
Experimental: (§4) To determine if any of the compounds shown in Table 1 and Table 2 can act as inducers of reporter gene activity in a transactivation assay, these compounds were tested in NIH3T3 cells transfected with pFRLUC reporter and gene expression cassettes, 1.1 to 1.8 described in Example 1. […] At 48 hr after adding ligand, the cells were harvested and reporter activity was assayed using Dual Luciferase assay kit (Promega carporation). Total relative light units (RLU) are shown. Standard methods for culture and maintenance of the cells were followed.
(§5) Transfections: DNAs corresponding to the various switch constructs outlined in Example I, specifically switches 1.1 through 1.8, were transfected into mouse NIH3T3 cells (ATCC) as follows. Cells were harvested when they reached 50% confluency and plated in 6-, 12- or 24-well plates at 125,000, 50,000, or 25,000 cells, respectively, in 2.5, 1.0, or 0.5 ml of growth medium containing 10% fetal bovine serum (FBS), respectively. The next day, the cells were rinsed with growth medium and transfected for four hours. […] For 12-well plates, 4 μl of Superfect™ was mixed with 100 μl of growth medium. 1.0 μg of reporter construct and 0.25 μg of each receptor construct of the receptor pair to be analyzed were added to the transfection mix. A second reporter construct was added [pTKRL (Promega), 0.1 μg/transfection mix] that comprises a Renilla luciferase gene operably linked and placed under the control of a thymidine kinase (TK) constitutive promoter and was used for normalization. The contents of the transfection mix were mixed in a vortex mixer and let stand at room temperature for 30 min. At the end of incubation, the transfection mix was added to the cells maintained in 400 μl growth medium. The cells were maintained at 37° C. and 5% CO2 for four hours. At the end of incubation, 500 μl of growth medium containing 20% FBS and either dimethylsulfoxide (DMSO; control) or a DMSO solution of 0.1, 1, and 10 μM ligand was added and the cells were maintained at 37° C. and 5% CO2 for 48 hours. The cells were harvested and reporter activity was assayed. The same procedure was followed for 6 and 24 well plates as well except all the reagents were doubled for 6 well plates and reduced to half for 24-well plates.
(§6) Ligands: All ligands were dissolved in DMSO and the final concentration of DMSO was maintained at 0.1% in both controls and treatments.
(§7) Reporter Assays: Cells were harvested 48 hours after adding ligands. 125, 250, or 500 μl of passive lysis buffer (part of Dual-luciferase™ reporter assay system from Promega Corporation) were added to each well of 24- or 12- or 6-well plates respectively. The plates were placed on a rotary shaker for 15 minutes. Twenty μl of lysate were assayed. Luciferase activity was measured using Dual-luciferase™ reporter assay system from Promega Corporation following the manufacturer's instructions.

[3] = tested on: CfEcR + LmUSP; details: CfEcR + LmUSP in 3T3 cells, reporter assayed 48 h after ligand
Experimental: 1.9—Gal4CfEcR-DEF/VP16LmRXR-EF: This construct was prepared in the same way as switch 1.1 except LmRXR-EF (SEQ ID NO: 18) was used in place of HsRXRβ-LmRXREF chimera.
as §4, §5, §6, §7

[4] = target: T3, Bombyx mori EcR (VP16-BmEcR, CVBE) (Bombyx mori, UniProt P49881); experiment: Z3 assay (HEK-293 clone Z3 with CVBE and 6x EcRE LacZ, β-galactosidase reporter); assay type: cell-based; details: 48 h, average of two wells
T3 construct: expressed in transfected cells
T3 sequence (P49881 86-606): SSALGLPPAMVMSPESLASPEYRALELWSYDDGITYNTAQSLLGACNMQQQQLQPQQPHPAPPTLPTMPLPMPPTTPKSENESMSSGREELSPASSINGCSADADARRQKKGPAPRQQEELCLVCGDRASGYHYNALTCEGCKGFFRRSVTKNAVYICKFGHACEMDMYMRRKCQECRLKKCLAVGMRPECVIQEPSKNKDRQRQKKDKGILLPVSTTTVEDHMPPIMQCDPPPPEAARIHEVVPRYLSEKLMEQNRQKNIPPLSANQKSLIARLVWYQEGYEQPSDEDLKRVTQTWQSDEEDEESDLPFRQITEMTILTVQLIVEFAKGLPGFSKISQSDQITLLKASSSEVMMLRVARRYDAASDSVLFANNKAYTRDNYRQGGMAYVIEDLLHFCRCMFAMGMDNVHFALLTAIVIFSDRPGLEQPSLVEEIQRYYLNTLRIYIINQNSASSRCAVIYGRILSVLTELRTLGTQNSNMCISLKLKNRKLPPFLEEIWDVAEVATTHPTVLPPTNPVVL

[5] = tested on: GAL4 DBD-CfEcR(DEF)/VP16AD-MmRXRE; details: CHO 13B3 clone, 48 h, average of two wells
From the text: GAL4 DBD-CfEcR(DEF)/VP16AD-MmRXRE: The wild-type D, E, and F domains from spruce budworm Choristoneura fumiferana EcR (“CfEcR-DEF”; SEQ ID NO: 1) were fused to a GAL4 DNA binding domain (“Gal4DBD1-147”; nucleotides 31 to 471 of SEQ ID NO: 2) and placed under the control of the SV40e promoter of pM vector (PT3119-5, Clontech, Palo Alto, Calif.). The D and E domains from Mus Musculus RXR (“MmRXR-DE”; SEQ ID NO: 22) were fused to the transactivation domain from VP16 (“VP16AD”; SEQ ID NO: 5) and placed under the control of the SV40e promoter of the pVP16 vector (PT3127-5, Clontech, Palo Alto, Calif.).
CHO cells were transiently transfected with transcription cassettes for GAL4 DBD-CfEcR(DEF) and for VP16AD-MmRXRE controlled by SV40e promoters. Stably transfected cells were selected using Hygromycin. Individually isolated CHO cell clones were transiently transfected with a GAL4 RE-luciferase reporter (pFR-Luc, Stratagene, La Jolla, Calif.). The 13B3 clone was selected using Zeocin.
(§1) Cells were trypsinized and diluted to a concentration of 2.5×10^4 cells mL. 100 μL of cell suspension was placed in each well of a 96 well plate and incubated at 37° C. under 5% CO2 for 24 h. Ligand stock solutions were prepared in DMSO and diluted 300 fold for all treatments.
(§2) Luciferase reporter gene expression was measured 48 h after cell treatment using Bright-Glo™ Luciferase Assay System from Promega (E2650). Luminescence was detected at room temperature using a Dynex MLX microtiter plate luminometer.
(§3) Each assay was conducted in two separate wells, and the two values were averaged. Fold inductions were calculated by dividing relative light units (“RLU”) in ligand treated cells with RLU in DMSO treated cells.

[6] = target: T4, GAL4AaEcR-DEF/VP16HsRXRβ-EF (Aedes aegypti, UniProt P49880); experiment: Transactivation reporter assay, AaEcR based switch (1.4) in NIH3T3 cells; assay type: cell-based; details: mammalian cells; FIGS. 2-5
T4 construct: expressed in transfected cells; host or cells: mouse NIH3T3 cells
T4 sequence (P49880 405-776 limits assumed): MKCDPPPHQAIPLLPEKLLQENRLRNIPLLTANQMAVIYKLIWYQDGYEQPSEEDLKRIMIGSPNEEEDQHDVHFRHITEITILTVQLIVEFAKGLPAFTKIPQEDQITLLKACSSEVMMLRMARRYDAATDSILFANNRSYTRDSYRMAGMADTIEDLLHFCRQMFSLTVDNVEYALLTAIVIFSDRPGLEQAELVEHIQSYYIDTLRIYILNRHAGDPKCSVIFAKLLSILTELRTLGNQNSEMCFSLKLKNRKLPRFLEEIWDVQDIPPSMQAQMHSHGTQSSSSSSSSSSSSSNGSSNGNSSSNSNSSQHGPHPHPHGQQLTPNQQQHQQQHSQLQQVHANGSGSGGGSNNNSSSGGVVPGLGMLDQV
T4 sequence (P28702 299-533 partner limits assumed): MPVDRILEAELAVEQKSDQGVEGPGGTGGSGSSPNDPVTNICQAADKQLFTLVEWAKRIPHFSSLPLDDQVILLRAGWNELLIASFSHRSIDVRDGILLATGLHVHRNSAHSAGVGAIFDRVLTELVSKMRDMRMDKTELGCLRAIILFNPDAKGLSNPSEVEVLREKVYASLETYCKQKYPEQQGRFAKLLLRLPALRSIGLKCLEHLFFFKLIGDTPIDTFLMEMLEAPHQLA
Experimental: Total relative light units (RLU) are shown.
Twenty μl of lysate were assayed.

[7] = tested on: GAL4 DBD (1-147)-CfEcR(DEF)/VP16AD-βRXREF-LmUSPEF; details: CHO 27-63 clone, 48 h, average of two wells
From the text: GAL4 DBD (1-147)-CfEcR(DEF)/VP16AD-βRXREF-LmUSPEF: The wild-type D, E, and F domains from spruce budworm Choristoneura fumiferana EcR (“CfEcR-DEF”; SEQ ID NO: 1) were fused to a GAL4 DNA binding domain (“Gal4DBD1-147”; nucleotides 31 to 471 of SEQ ID NO: 2) and placed under the control of a phosphoglycerate kinase promoter (“PGK”; SEQ ID NO: 19). Helices 1 through 8 of the EF domains from Homo sapiens RXRβ and helices 9 through 12 of the EF domains of Locusta migratoria Ultraspiracle Protein (“HsRXRβ-EF-LmUSP-EF”; SEQ ID NO: 4) were fused to the transactivation domain from VP16 (“VP16AD”; SEQ ID NO: 5) and placed under the control of an elongation factor-1α promoter (“EF-1α”; SEQ ID NO: 20). Five consensus GAL4 response element binding sites (“5× GAL4RE”; comprising 5 copies of a GAL4RE comprising SEQ ID NO: 7) were fused to a synthetic TATA minimal promoter (SEQ ID NO: 21) and placed upstream of the luciferase reporter gene (SEQ ID NO: 9).
CHO cells were transiently transfected with transcription cassettes for GAL4 DBD (1-147) CfEcR(DEF) and for VP16AD βRXREF-LmUSPEF controlled by ubiquitously active cellular promoters (PGK and EF-1α, respectively) on a single plasmid. Stably transfected cells were selected by Zeocin resistance. Individually isolated CHO cell clones were transiently transfected with a GAL4 RE-luciferase reporter (pFR Luc). 27-63 clone was selected using Hygromycin.
as §1, with “treatments. Dose response testing consisted of 8 concentrations ranging from 33 μM to 0.01 μM.” for “treatments.”
as §2, §3

## C[C@H]1C[C@@H](Nc2ccc(F)cc2)c2cc(F)ccc2N1C(=O)c1ccc(F)cc1 (relative stereo) [Compound I-8]
[1]
  Fold Induction Average, AA_3T3V1 Assay 33 μM: 153 fold
[2]
  Fold Induction (10 μM): 2 fold
  Fold Induction (100 μM): 7 fold
[3]
  Fold Induction (10 μM): 3 fold

## C[C@H]1C[C@H](Nc2ccc(F)cc2)c2cc(F)ccc2N1C(=O)c1ccc(F)cc1 (relative stereo) [Compound I-9]
[4]
  Fold Induction Average, Z3V1 Assay 33 μM: 16 fold
[1]
  Fold Induction Average, AA_3T3V1 Assay 33 μM: 131 fold
[2]
  Fold Induction (10 μM): 9 fold
  Fold Induction (100 μM): 2 fold
[3]
  Fold Induction (10 μM): 3 fold

## C[C@H]1C[C@@H](Nc2ccc(F)cc2)c2cc(F)ccc2N1C(=O)c1ccccc1 (relative stereo) [Compound I-10]
[1]
  Fold Induction Average, AA_3T3V1 Assay 33 μM: 164 fold
[2]
  Fold Induction (10 μM): 1 fold
  Fold Induction (100 μM): 1 fold
[3]
  Fold Induction (10 μM): 1 fold

## C[C@H]1C[C@H](Nc2ccc(F)cc2)c2cc(F)ccc2N1C(=O)c1ccccc1 (relative stereo) [Compound I-11]
[4]
  Fold Induction Average, Z3V1 Assay 33 μM: 32 fold
[1]
  Fold Induction Average, AA_3T3V1 Assay 33 μM: 387 fold
[2]
  Fold Induction (10 μM): 5 fold
  Fold Induction (100 μM): 3 fold
[3]
  Fold Induction (10 μM): 1 fold

## Cc1ccc(C(=O)N2c3ccc(F)cc3[C@@H](Nc3ccc(F)cc3)C[C@@H]2C)cc1F (relative stereo) [Compound I-12]
[4]
  Fold Induction Average, Z3V1 Assay 33 μM: 169 fold
[1]
  Fold Induction Average, AA_3T3V1 Assay 33 μM: 504 fold
[5]
  Fold Induction Average, 13B3V1 Assay 33 μM: 815 fold
[6]
  Activity on AaEcR based switches: very active

## COc1cccc(C(=O)N2c3ccc(C)cc3[C@@H](Nc3ccc(C)cc3)C[C@@H]2C)c1 (relative stereo) [Compound I-86]
[4]
  Fold Induction Average, Z3V1 Assay 33 μM: 1 fold
[1]
  Fold Induction Average, AA_3T3V1 Assay 33 μM: 2 fold
[7]
  Fold Induction Average, 27-63V1 Assay 33 μM: 1 fold

## COC(=O)c1ccc(C(=O)N2c3ccc(F)cc3C(Nc3ccc(F)cc3)CC2C)cc1 (stereo not drawn) [Compound I-94]
[4]
  Fold Induction Average, Z3V1 Assay 33 μM: 48 fold
[1]
  Fold Induction Average, AA_3T3V1 Assay 33 μM: 798 fold
[7]
  Fold Induction Average, 27-63V1 Assay 33 μM: 32 fold

## CC1CC(Nc2ccccc2)c2ccccc2N1C(=O)c1ccno1 (stereo not drawn) [Compound I-104]
[4]
  Fold Induction Average, Z3V1 Assay 33 μM: 1 fold
[1]
  Fold Induction Average, AA_3T3V1 Assay 33 μM: 347 fold
[7]
  Fold Induction Average, 27-63V1 Assay 33 μM: 1 fold

## COc1ccc(C(=O)N2c3c(C)cccc3C(Nc3ccccc3C)CC2C)cc1 (stereo not drawn) [Compound I-135]
[4]
  Fold Induction Average, Z3V1 Assay 33 μM: 1 fold
[1]
  Fold Induction Average, AA_3T3V1 Assay 33 μM: 1 fold
[5]
  Fold Induction Average, 13B3V1 Assay 33 μM: 1 fold
[7]
  Fold Induction Average, 27-63V1 Assay 33 μM: 3 fold

## CC1CC(N(C(=O)c2cccc(Br)c2)c2ccccc2)c2ccccc2N1C(=O)c1cccc(O)c1 (stereo not drawn) [Compound I-166]
[4]
  Fold Induction Average, Z3V1 Assay 33 μM: 1 fold
[1]
  Fold Induction Average, AA_3T3V1 Assay 33 μM: 58 fold
[5]
  Fold Induction Average, 13B3V1 Assay 33 μM: 2 fold

## CCCc1ccc(C(=O)N2c3ccccc3C(Nc3ccccc3)CC2C)cc1 (stereo not drawn) [Compound I-173]
[4]
  Fold Induction Average, Z3V1 Assay 33 μM: 3 fold
[1]
  Fold Induction Average, AA_3T3V1 Assay 33 μM: 172 fold
[5]
  Fold Induction Average, 13B3V1 Assay 33 μM: 1 fold

## CC1CC(Nc2ccccc2)c2ccccc2N1C(=O)COc1ccc(Cl)cc1 (stereo not drawn) [Compound I-180]
[4]
  Fold Induction Average, Z3V1 Assay 33 μM: 1 fold
[1]
  Fold Induction Average, AA_3T3V1 Assay 33 μM: 9 fold
[5]
  Fold Induction Average, 13B3V1 Assay 33 μM: 1 fold

## Cc1ccccc1NC1CC(C)N(C(=O)c2ccccc2)c2c(C)cccc21 (stereo not drawn) [Compound I-184]
[1]
  Fold Induction Average, AA_3T3V1 Assay 33 μM: 1 fold
[7]
  Fold Induction Average, 27-63V1 Assay 33 μM: 1 fold

## CCNC(=O)N1c2ccccc2C(Nc2ccccc2)CC1C (stereo not drawn) [Compound I-210]
[1]
  Fold Induction Average, AA_3T3V1 Assay 33 μM: 12 fold
[7]
  Fold Induction Average, 27-63V1 Assay 33 μM: 1 fold
